Laboratory results as given in article PMC4890880 (ACS infectious diseases, 2016).
Read-outs that look alike come from different tables or passages of the source.

Legend:
[1] = system: P. falciparum 3D7 parasites; experiment: Asexual erythrocytic-stage SYBR Green I proliferation assay, 1536-well; assay type: cell-based, Plasmodium falciparum
[2] = system: Plasmodium berghei (Pb-Luc) exoerythrocytic-stage parasites; experiment: microbe, parasite or virus in culture
[3] = system: Pb-Luc exoerythrocytic-stage parasites in Huh7.5.1 cells; experiment: Pb-Luc time of action assay (modified 384-well luciferase assay); conditions: Plasmodium berghei
[4] = system: Plasmodium cynomolgi exoerythrocytic-stage small (hypnozoites) and large (liver stage schizonts) parasites; experiment: P. cynomolgi liver assay in primary hepatocytes; conditions: Plasmodium cynomolgi, Hepatocyte
HepG2-A16-CD81EGFP cells [5] = experiment: cells; conditions: Homo sapiens
[6] = target: QuantiLum Recombinant Luciferase (Photinus pyralis, UniProt P08659); experiment: Bioluminescence quantification of compound luciferase inhibition
Sequence of QuantiLum Recombinant Luciferase (P08659 whole entry): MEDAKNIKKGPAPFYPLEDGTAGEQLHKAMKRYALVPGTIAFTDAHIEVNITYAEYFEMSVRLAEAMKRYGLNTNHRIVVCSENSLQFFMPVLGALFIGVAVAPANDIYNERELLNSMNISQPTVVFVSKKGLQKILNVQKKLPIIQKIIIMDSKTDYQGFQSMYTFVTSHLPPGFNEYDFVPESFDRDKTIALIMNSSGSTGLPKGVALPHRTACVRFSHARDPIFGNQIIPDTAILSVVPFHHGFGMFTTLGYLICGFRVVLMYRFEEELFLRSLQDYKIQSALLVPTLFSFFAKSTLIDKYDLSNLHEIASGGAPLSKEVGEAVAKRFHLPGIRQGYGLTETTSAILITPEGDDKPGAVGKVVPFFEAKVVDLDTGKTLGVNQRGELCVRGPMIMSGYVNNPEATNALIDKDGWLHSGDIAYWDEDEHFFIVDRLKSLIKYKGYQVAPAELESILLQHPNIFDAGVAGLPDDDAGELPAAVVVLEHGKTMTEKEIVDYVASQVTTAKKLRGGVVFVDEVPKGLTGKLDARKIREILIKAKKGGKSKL

[7] = system: Plasmodium berghei (Pb-Luc) exoerythrocytic-stage parasites; conditions: read-out: Exoerythrocytic-stage Pb-Luc IC50, Figure 4b
HepG2-A16-CD81EGFP cells [8] = system: HepG2-A16-CD81EGFP cells
[9] = system: P. falciparum Dd2 erythrocytic stage; experiment: Dd2 erythrocytic-stage assay (SYBR Green) for DOS compounds; conditions: read-out: Erythrocytic-stage (Pf Dd2) IC50; Figure 4b
[10] = Plasmodium falciparum, 3D7, read-out: P. falciparum (blood) IC50, Table S1, validation set of 50 antimalarials
[11] = read-out: P. berghei (liver) IC50, Table S1, validation set of 50 antimalarials, Pb-Luc
[12] = Huh-7.5.1, read-out: Pb-Luc IC50, Treatment: 1
[13] = Huh-7.5.1, read-out: Pb-Luc IC50, Treatment: 2
[14] = Huh-7.5.1, read-out: Pb-Luc IC50, Treatment: 3
[15] = Huh-7.5.1, read-out: Pb-Luc IC50, Treatment: 4
[16] = Huh-7.5.1, read-out: Pb-Luc IC50, Treatment: 5
[17] = Huh-7.5.1, read-out: Pb-Luc IC50, Treatment: 6
[18] = read-out: P. berghei (liver) IC50
[19] = read-out: % inhibition normalized to untreated control, Large
[20] = read-out: % inhibition normalized to untreated control, Small

SMILES	IC50 [1, 10] [nM]	IC50 [2, 11] [nM]	IC50 [3, 12] [nM]	IC50 [3, 13] [nM]	IC50 [3, 14] [nM]	IC50 [3, 15] [nM]	IC50 [3, 16] [nM]	IC50 [3, 17] [nM]	also measured
O=C1C(O)=C([C@H]2CC[C@H](c3ccc(Cl)cc3)CC2)C(=O)c2ccccc21 [Atovaquone, reference compound]	< 0.4	0.25	34	2.8	7.9	1.6	1.1	0.9	–
CCc1nc(N)nc(N)c1-c1ccc(Cl)cc1 [Pyrimethamine, reference compound]	19.9	5.1	122	21	252	19.7	18.8	18.9	–
O=C(NCCN1CCCC1)c1cc(-c2ccc(CN3CCOCC3)cc2)nc2ccc(F)cc12 [DDD107498, reference compound]	–	–	2.2	1.6	0.8	1.1	0.9	0.7	–
COc1cc(NC(C)CCCN)c2ncccc2c1 (stereo not shown) [Primaquine, reference compound]	–	–	–	–	–	–	–	–	IC50 ([1]; Plasmodium falciparum, 3D7, read-out: P. falciparum (blood) IC50): 695 nM; IC50 [2, 18]: 705 nM; inhibition at 0.1 µM [4, 19]: 1%; inhibition at 1 µM [4, 19]: 3%; inhibition at 10 µM [4, 19]: 13%; inhibition at 0.1 µM [4, 20]: 4%; inhibition at 1 µM [4, 20]: 19%; inhibition at 10 µM [4, 20]: 24%
COc1ccccc1CNC(=O)CCn1c(=O)[nH]c2ccccc2c1=O [MMV665916]	–	–	5730	5780	8160	4290	786	370	cytotoxicity at 50 µM (HepG2-A16-CD81EGFP cells [5]; HepG2, read-out: HepG2 Tox% @ 50 uM rep1): -21%; cytotoxicity at 50 µM (HepG2-A16-CD81EGFP cells [5]; HepG2, read-out: HepG2 Tox% @ 50 uM rep2): -23%; IC50 (HepG2-A16-CD81EGFP cells [5]; HepG2, read-out: Tox IC50): > 10000 nM; inhibition at 10 µM (HepG2-A16-CD81EGFP cells [5]; HepG2, read-out: Tox max inhibition (%) @ 10 uM): -2.14%; inhibition at 50 µM ([2]; read-out: Inhibition% @ 50 uM rep1): 99%; inhibition at 50 µM ([2]; read-out: Inhibition% @ 50 uM rep2): 99%; IC50 ([2]; read-out: PbLuc IC50, dose response, 1/3 dilutions, max conc. 10 or 50 uM, unit inferred): 44.3 nM; inhibition at 10 µM ([2]; read-out: PbLuc max inhibition (%) @ 10 uM): 100%; inhibition at 0.1 µM [4, 19]: 6%; inhibition at 1 µM [4, 19]: 2%; inhibition at 10 µM [4, 19]: -13%; inhibition at 0.1 µM [4, 20]: 20%; inhibition at 1 µM [4, 20]: -13%; inhibition at 10 µM [4, 20]: -15%; IC50 [6]: > 20000 nM; Emax ([6]; read-out: LucInhib max inhibition): 15%
C[C@@H]1CC[C@H]2[C@@H](C)C(=O)O[C@@H]3O[C@@]4(C)CC[C@@H]1[C@]32OO4 [Artemisinin, reference compound]	4.7	1720	–	–	–	–	–	–	–
CC1(C)N=C(N)N=C(N)N1c1ccc(Cl)cc1 [Cycloguanil, reference compound]	3.1	7	–	–	–	–	–	–	–
CCN(CCO)CCCC(C)Nc1ccnc2cc(Cl)ccc12 (stereo not shown) [Hydroxychloroquine, reference compound]	13.9	> 12500	–	–	–	–	–	–	–
O=C(Nc1cccc(F)c1)N1CCCCN2[C@H](CO)[C@@H](c3ccc(C#Cc4cccnc4)cc3)[C@@H]2C1 [BRD47390]	–	–	–	–	–	–	–	–	IC50 ([7]; first assay): 360 nM; IC50 ([7]; second assay (value in parentheses)): 230 nM; CC50 (HepG2-A16-CD81EGFP cells [8]): > 10000 nM; IC50 [9]: 2580 nM
C[C@H]1[C@H](N2CCS(=O)(=O)CC2)O[C@@H]2O[C@@]3(C)CC[C@H]4[C@H](C)CC[C@@H]1[C@@]24OO3 [Artemisone, reference compound]	0.7	178	–	–	–	–	–	–	–
CC(=O)N(O)CCCCCNC(=O)CCC(=O)N(O)CCCCCNC(=O)CCC(=O)N(O)CCCCCN [Deferoxamine, reference compound]	> 10000	> 12500	–	–	–	–	–	–	–
OC(c1cc(C(F)(F)F)nc2c(C(F)(F)F)cccc12)C1CCCCN1 (stereo not shown) [Mefloquine (+ RS), Mefloquine, reference compound]	–	2330	–	–	–	–	–	–	IC50 ([1]; read-out: P. falciparum (blood) IC50, Table S1, validation set of 50 antimalarials): 16.6 nM
CN(C)[C@@H]1C(O)=C(C(N)=O)C(=O)[C@@]2(O)C(O)=C3C(=O)c4c(O)cccc4[C@@](C)(O)[C@H]3C[C@@H]12 [Tetracycline, reference compound]	> 10000	–	–	–	–	–	–	–	IC50 [2, 18]: > 12500 nM
